This note sets out measurements from patent US20080027088A1, “Imidazole-Based Hmg-Coa Reductase Inhibitors” (Warner-Lambert Company, LLC, priority 2004, published 2008).

Structures are written as SMILES.

Holding throughout (format): in vivo
Assay [1] concerns LCB1 and LCB2 mRNA. The experiment in a line: SPT gene expression (LCB1, LCB2 mRNA) in liver by RT-PCR. The following applies: 0.3 mg/kg/day diet admix, 12 weeks, Western diet-fed ApoE KO mice. As for the experimental part: SPT expression and activity—Total RNA was isolated from liver and aorta using Trizol (Invitrogen, Calif.). LCB1 and LCB2 mRNA levels were measured by real-time (RT) polymerase chain reaction (PCR) on ABI Prism 7900HT Sequence Detection System (Applied Biosystems, Foster City, Calif.). The following primers and probe sets were utilized: LCB1, forward primer, 5′-CCGCTCCTTCGTGGTTGA-3′: reverse primer, 5′-[…]-3′: probe, 5′FAM-[…]-3′; LCB2, forward primer, 5′-[…]-3′, reverse primer, 5′-CCTCAGGATCCAGGCCM-3′, probe, 5′FAM-[…]-3′. The optimum number of cycles was set for each gene product with uniform amplification. Each mRNA level was expressed as a ratio to 18s ribosomal RND or as a ratio to GAPDH RNA.
FIGS. 1-A, 1-B, 1-C, 1-D and 1-E. SPT gene expression and enzyme activity. Mice were treated with 0.3 mg/kg/day myriocin for 12 weeks by mixing with Western diet chow. Liver was isolated and total mRNA and cell-free homogenate were prepared. SPT mRNA expression was quantified by quantitative RT-PCR. Expression was described as a ratio of LCB1 (A) or LCB2 (B) mRNA to 18s RNA or to rodent GAPDH RNA (n=5, P>0.05). SPT activity of cell-free homogenate (C) was measured with ^14C-labeled Serine and palmitoyl-coenzyme A as substrates and analyzed by TLC. Relative amounts of 3-ketosphinganine were determined by densitometry scanning. The values reported are mean±SEM (n=3, *P<0.05).

Assay [2] concerns ApoE KO mice fed a Western diet. Briefly: Plasma lipoprotein cholesterol distribution by FPLC, 12 weeks. As to conditions: 0.3 mg/kg/day. Here is the method:
(§1) Animal experiments—Male C57BI/6J and ApoE KO mice on C57BI/6J background were obtained from the Jackson Laboratory (Bar Harbor, Me.) or Taconic (Germantown, N.Y.) (Plaque formation in ApoE KO mice is lipid-driven (A. S. Plump et al., Cell. 1992;71 (2):343-53)). Myriocin was mixed with Western diet containing 0.21% cholesterol and 21% fat. 8-12-week-old mice received 0.3 mg myriocin/kg/day for 12 weeks (Table 1). 10-12 week-old ApoE KO mice (n=8) were pre-fed a western diet for 2 weeks and mice received various concentrations of myriocin for 4 weeks in diet admix. Control groups consisted of ApoE KO mice fed normal chow or Western diet without myriocin, and normal chow-fed C57BI/6J mice. Body weight and chow feeding was measured every week to examine the food consumption. For the femoral artery cuff model, 8-10 week-old male ApoE KO mice were anethetized and the right femoral artery was dissected from its surroundings. A nonconstrictive polyethylene cuff (Portex, 0.40-mm inner diameter, 0.80-mm outer diameter, and 1.5-mm length) was placed looselyaround the right femoral artery.
(§2) Plasma lipids and serum amyloid A measurement—Mice were sacrificed by CO2 inhalation and blood was collected through cardiac puncture. Plasma concentrations of total cholesterol and triglyceride were determined enzymatically on a Cobas Mira Plus auto-analyzer using Cholesterol R1 and Triglycerides Reagent methods, respectively (Roche Diagnostics, Indiana, USA). Colormetric changes were measured at 500 nm. Lipoproteins were separated from mouse plasma by fast-protein liquid chromatography utilizing a Superose 6HR column. Cholesterol distribution among lipoproteins was determined by in-line post column analysis (K. A. Kieft, T. M. Bocan and B. R. Krause, J. Lipid Res. 1991; 32:859-66). Serum Amyloid A (SAA) protein in plasma was measured by ELISA according to the manufacturer's instructions (Biosource).
FIG. 6. Plasma Lipoprotein Distribution of ApoE KO Mice Fed a Western Diet. After 12 weeks of diet admix myriocin treatment (0.3 mg/kg/day), mice were sacrificed and plasma was isolated for lipoprotein composition. βVLDL (A), LDL (B) and HDL (C) Lipoproteins were separated from mouse plasma by fast-protein liquid chromatography (FPLC) utilizing a Superose 6HR column. Cholesterol distribution among lipoproteins was determined by in-line post column analysis (Kieft, K. A., T. M. A. Bocan, B. R. Krause, J. Lipid Res. 1991, 32:859-866.). The values reported are mean±SEM (n=5, *P<0.01, Western diet vs other study groups; n=5, #P<0.05, Western diet plus myriocin vs normal chow).

For assay [3] the test system is unchanged. The experiment in a line: Incorporation of T lymphocytes into lesion of aortic root. The following applies: 12 weeks. Here is the method: For histological analysis, the mice were perfused and fixed in Zinc-Tris fixative. Paraffin embedded sections were stained with Masson's Trichrome. Intimal macrophages were immunohistochemically stained using MAC-2 antibody (clone M3/38 from Cedarlane Laboratories Limited) counterstained with Verhoeff elastic stain. T-lymphocytes were immunohistochemically stained with rat CD3 antibody (clone CD3-12, Serotec). Lesion thickness and area occupied by macrophages were determined using Image Pro Plus software. FIG. 14. Incorporation of T lymphocytes into lesion of aortic root. Cross section of aortic root was stained by rat CD3 antibody and developed by diaminobenzidine (brown color) to detect incorporated T lymphocytes. Sections were counterstained with Harris hematoxylin (blue). T-lymphocyte incorporation was quantified by measuring number of intimal T lymphocytes in aortic root (FIG. 14). Values are mean±SEM (n=5; *P<0.05, Western diet vs standard chow; #P<0.05, Western diet plus myriocin vs standard chow). Bar represents 50 μm.

For assay [4] the test system is unchanged. Briefly: Plasma total cholesterol and triglyceride, 4 weeks myriocin diet admix. Here is the method:
as §1, §2
FIG. 3. Plasma Cholesterol and Triglycerides in ApoE KO Mice Fed a Western Diet. After 4 weeks of diet admix myriocin treatment, mice were sacrificed and plasma was isolated. Plasma concentrations of total cholesterol (A) and triglyceride (B) were determined enzymatically on a Cobas Mira Plus auto-analyzer using Cholesterol R1 and Triglycerides Reagent methods, respectively. Colormetric changes were measured at 500 nm. The values reported are mean±SEM (n=8, *P<0.01).

Assay [5] shares this test system. The experiment in a line: Plasma total cholesterol and triglyceride, 12 weeks. The following applies: 0.3 mg/kg/day. Here is the method:
as §1, with “For the femoral artery cuff model, 8-10 week-old male ApoE KO mice were anethetized and the right femoral artery was dissected from its surroundings. A nonconstrictive polyethylene cuff (Portex, 0.40-mm inner diameter, 0.80-mm outer diameter, and 1.5-mm length) was placed looselyaround the right femoral artery.” left out
Plasma lipids and serum amyloid A measurement—Mice were sacrificed by CO2 inhalation and blood was collected through cardiac puncture. Plasma concentrations of total cholesterol and triglyceride were determined enzymatically on a Cobas Mira Plus auto-analyzer using Cholesterol R1 and Triglycerides Reagent methods, respectively (Roche Diagnostics, Indiana, USA). Colormetric changes were measured at 500 nm. […] Cholesterol distribution among lipoproteins was determined by in-line post column analysis (K. A. Kieft, T. M. Bocan and B. R. Krause, J. Lipid Res. 1991; 32:859-66). […]
FIG. 7. […] Colormetric changes were measured at 500 nm. […]

[6] abbreviates: vs Western diet-fed ApoE KO mice.

With `CCCCCCC(=O)CCCCCC/C=C/C[C@@H](O)[C@H](O)[C@@](N)(CO)C(=O)O` [myriocin], the “effect on expression of LCB1 and LCB2 mRNA in the liver” value in assay [1] is “no effect”. For the same molecule, the “plasma apoB levels” value in assay [2] (comparable to standard chow-fed group) is “lowered”. In assay [2] (setting [6]), this molecule yielded an HDL-cholesterol content increased of 54%, an LDL-cholesterol lowered of 35% and a βVLDL-cholesterol lowered of 51%. Also, the “accumulation of T cells in lesion of aortic root” value in assay [3] is on record as “not affected”. In addition, the “effect on plasma TG levels” value in assay [4] (0.1 mg/kg/day) is “no effect”. For the same molecule, the plasma cholesterol reduction in assay [4] (0.1 mg/kg/day, vs no-myriocin control) is 46%. The “plasma TG levels lowered” value in assay [4] (0.3 mg/kg/day) stood at 44%. Further, the “plasma cholesterol decrease (maximum)” value in assay [4] (0.3 mg/kg/day, vs no-myriocin control) is recorded as 76%. In assay [5], the “plasma TG lowered” value is listed as 45% and the plasma cholesterol lowered was found to be 41%.
